Test results published in publication PMC8464905, “Novel c-Jun N-Terminal Kinase (JNK) Inhibitors with an 11H-Indeno[1,2-b]quinoxalin-11-one Scaffold” (Molecules, 2021).
Where two headings read alike, the source gives them in different places. One block for each compound: values may come before it.

What was measured:
JNK2 = target: T1, JNK2 (Homo sapiens, UniProt P45984); experiment: KINOMEscan Kd determination, JNK2; conditions: duplicate, mean, N.B. = no binding at < 30 μM
T1 construct: purchased Eurofins Pharma Discovery (KINOMEscan)
T1 sequence (P45984 whole entry): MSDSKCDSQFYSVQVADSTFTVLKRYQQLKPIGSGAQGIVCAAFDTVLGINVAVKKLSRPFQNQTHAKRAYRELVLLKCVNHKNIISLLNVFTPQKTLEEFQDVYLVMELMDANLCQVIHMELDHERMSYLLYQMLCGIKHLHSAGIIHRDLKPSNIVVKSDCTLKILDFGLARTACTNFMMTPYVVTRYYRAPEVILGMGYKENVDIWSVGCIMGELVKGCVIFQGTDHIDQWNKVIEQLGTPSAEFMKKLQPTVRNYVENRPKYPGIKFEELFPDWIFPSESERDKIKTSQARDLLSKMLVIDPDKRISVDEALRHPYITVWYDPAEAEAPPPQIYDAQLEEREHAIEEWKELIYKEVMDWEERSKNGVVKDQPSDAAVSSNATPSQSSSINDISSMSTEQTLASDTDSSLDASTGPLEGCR
Protocol: (§1) Selected compounds were submitted for dissociation constant (Kd) determination using KINOMEscan (Eurofins Pharma Discovery, San Diego, CA, USA), as described previously. […] Primary screening at fixed concentrations of compounds was performed in duplicate.

JNK1 [1] = target: T2, JNK1 (Homo sapiens, UniProt P45983); experiment: KINOMEscan Kd determination, JNK1; conditions: duplicate, mean, N.B. = no binding at < 30 μM
T2 construct: purchased Eurofins Pharma Discovery (KINOMEscan)
T2 sequence (P45983 whole entry): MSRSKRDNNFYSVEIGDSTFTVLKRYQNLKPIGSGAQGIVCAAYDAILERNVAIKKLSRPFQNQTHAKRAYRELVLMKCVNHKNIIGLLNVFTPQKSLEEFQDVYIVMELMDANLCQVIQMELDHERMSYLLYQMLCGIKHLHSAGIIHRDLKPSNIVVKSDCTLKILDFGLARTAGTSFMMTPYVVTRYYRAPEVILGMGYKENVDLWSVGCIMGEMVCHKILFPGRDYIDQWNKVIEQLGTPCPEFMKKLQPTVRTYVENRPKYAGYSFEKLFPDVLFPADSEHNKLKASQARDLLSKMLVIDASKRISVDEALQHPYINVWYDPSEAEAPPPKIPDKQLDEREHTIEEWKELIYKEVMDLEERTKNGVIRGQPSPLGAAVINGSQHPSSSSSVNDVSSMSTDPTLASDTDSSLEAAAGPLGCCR
Protocol: as §1

[2] = CellTiter-Glo cytotoxicity in MonoMac-6 cells; format: cell-based, human; conditions: human, MonoMac-6 cells; 24-h incubation, up to 50 μM; read-out: MonoMac-6 Cell Cytotoxicity IC50
Protocol: (§2) All cells were cultured at 37 °C in a humidified atmosphere containing 5% CO2. THP1-Blue cells obtained from InvivoGen (San Diego, CA, USA) were cultured in RPMI 1640 medium (Mediatech Inc., Herndon, VA, USA) supplemented with 10% (v/v) fetal bovine serum (FBS), 100 μg/mL streptomycin, 100 U/mL penicillin, 100 μg/mL phleomycin (Zeocin), and 10 μg/mL blasticidin S. Human monocyte-macrophage MonoMac-6 cells (Deutsche Sammlung von Mikroorganismen und Zellkulturen GmbH, Braunschweig, Germany) were grown in RPMI 1640 medium supplemented with 10% (v/v) FBS, 10 μg/mL bovine insulin, 100 μg/mL streptomycin, and 100 U/mL penicillin.
(§3) Cytotoxicity was analyzed with a CellTiter-Glo Luminescent Cell Viability Assay Kit from Promega (Madison, WI, USA), according to the manufacturer’s protocol. Cells were treated with compounds under investigation and incubated for 24 h. After treatment, the cells were equilibrated to room temperature for 30 min, substrate was added, and the samples were analyzed with a Fluoroscan Ascent FL (Thermo Fisher Scientific, Waltham, MA, USA). The IC50 values were calculated by plotting percentage inhibition against the logarithm of inhibitor concentration (at least five points).

Water solubility = format: physicochemical
[3] = CellTiter-Glo cytotoxicity in THP-1Blue cells; format: cell-based, human; conditions: human, THP-1Blue cells; 24-h incubation, up to 50 μM; read-out: THP-1Blue Cell Cytotoxicity IC50
Protocol: as §2, §3

IL-6 [4] = experiment: LPS-induced IL-6 production in MonoMac-6 cells (ELISA); format: cell-based; conditions: Homo sapiens, MONO-MAC-6; 30 min pretreatment, 250 ng/mL LPS for 24 h; read-out: MonoMac-6 Cell IL-6 IC50
Protocol: as §2
A human IL-6 ELISA kit (BD Biosciences, San Jose, CA, USA) was measure IL-6 production. MonoMac-6 cells were plated in 96-well plates at a density of 2 × 10^5 cells/well in culture medium supplemented with 3% (v/v) endotoxin-free FBS. The cells were pretreated with test compound or DMSO for 30 min, followed by addition of 250 ng/mL LPS for 24 h. IC50 values for IL-6 production were calculated by plotting percentage inhibition against the logarithm of inhibitor concentration (at least five points).

JNK1-3 [5] = experiment: KINOMEscan binding, statements for all three JNK isoforms; conditions: summary of Table 3
Protocol: as §1

JNK3 [6] = target: T3, JNK3 (Homo sapiens, UniProt P53779); experiment: KINOMEscan Kd determination, JNK3; conditions: duplicate, mean, N.B. = no binding at < 30 μM
T3 construct: purchased Eurofins Pharma Discovery (KINOMEscan)
T3 sequence (P53779 whole entry): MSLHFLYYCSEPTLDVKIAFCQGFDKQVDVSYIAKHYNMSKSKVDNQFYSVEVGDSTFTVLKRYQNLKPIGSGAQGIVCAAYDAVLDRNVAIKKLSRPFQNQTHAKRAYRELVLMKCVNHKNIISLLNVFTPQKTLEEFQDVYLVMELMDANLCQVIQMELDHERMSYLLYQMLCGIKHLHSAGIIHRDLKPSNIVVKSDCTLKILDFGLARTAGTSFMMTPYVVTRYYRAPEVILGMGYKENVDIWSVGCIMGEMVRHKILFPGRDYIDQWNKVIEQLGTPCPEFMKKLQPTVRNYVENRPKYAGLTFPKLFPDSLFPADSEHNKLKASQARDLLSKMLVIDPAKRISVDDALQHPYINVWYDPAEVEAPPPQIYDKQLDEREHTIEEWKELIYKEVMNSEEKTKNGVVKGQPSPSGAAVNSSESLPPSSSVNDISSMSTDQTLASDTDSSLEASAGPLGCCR
Protocol: as §1

NF-κB/AP-1 = experiment: LPS-induced NF-κB/AP-1 alkaline phosphatase reporter assay in THP1-Blue cells; format: cell-based; conditions: Homo sapiens; 30 min pretreatment, 250 ng/mL LPS for 24 h; read-out: THP-1Blue Cell NF-κB/AP-1 IC50
Protocol: as §2
Activation of AP-1/NF-κB was measured using an alkaline phosphatase reporter gene assay in THP1-Blue cells. Human monocytic THP-1 Blue cells are stably transfected with a secreted embryonic alkaline phosphatase gene that is under the control of a promoter inducible by NF-κB/AP-1. THP1-Blue cells (2 × 10^5 cells/well) were pretreated with test compound or DMSO for 30 min, followed by addition of 250 ng/mL lipopolysaccharide (LPS) for 24 h, and alkaline phosphatase activity was measured in cell supernatants using QUANTI-Blue mix (InvivoGen) as absorbance at 655 nm and compared with positive control samples (LPS). For selected compounds, the concentrations of inhibitor that caused 50% inhibition of the NF-κB reporter activity (IC50) were calculated.

phospho-c-Jun (Ser63) = experiment: LPS-induced c-Jun (Ser63) phosphorylation in MonoMac-6 cells (Western blotting); format: cell-based, human; conditions: 30 min pretreatment, LPS 250 ng/mL 30 min
Protocol: MonoMac-6 monocytic cells were pretreated with different concentrations of the compounds under investigation for 30 min and treated with LPS (250 ng/mL) or vehicle for another 30 min. Cells were washed twice with Hanks’ balanced salt solution, and cell lysates were prepared using lysis buffer from the JNK kinase assay kit (Cell Signaling Technology, Danvers, MA). Cell lysates (from 5 × 10^6 cells) were separated on ExpressPlus 4–20% PAGE Gels (GenScript, Piscataway, NJ, USA) using TRIS-MOPS running buffer (GenScript) and transferred to nitrocellulose membranes. The blots were probed with antibodies against c-Jun, phospho-c-Jun (Ser63), and total c-Jun (Cell Signaling Technology, Danvers, MA, USA), followed by horseradish peroxidase-conjugated secondary antibody (Cell Signaling Technology). The blots were developed using SuperSignal West Femto chemiluminescent substrate (Thermo Fisher Scientific) and visualized with a FluorChem FC2 imaging system (Alpha Innotech Corporation, San Leandro, CA, USA). Quantitation of the chemiluminescent signal was performed using AlphaView software (ver. 3.0; Alpha Innotech).

IL-6 [7] = system: IL-6; set-up: method as in PMID 22434859; conditions: LPS-induced; ref [35]; read-out: MonoMac-6 Cell IL-6 IC50; cited from earlier work
JNK3 [8] = target: T3, JNK3; set-up: method as in PMID 27027242, PMID 11717429, PMID 16759099, PMID 21666839; conditions: Figure 1; ref [25],[32],[33],[34]; cited from earlier work
JNK1 [9] = target: T2, JNK1; set-up: method as in PMID 27027242, PMID 11717429, PMID 16759099, PMID 21666839; conditions: Figure 1; ref [25],[32],[33],[34]; cited from earlier work
JNK1-3 [10] = system: JNK1-3; set-up: method as in PMID 27027242, PMID 11717429, PMID 16759099, PMID 21666839; conditions: Figure 1; ref [25],[32],[33],[34]; cited from earlier work

Kd (JNK2): 880 ± 100 nM
Kd (JNK1 [1]): 1100 ± 100 nM
Water solubility (Water solubility): high water solubility
IC50 (IL-6 [4]): 800 ± 100 nM
Binding affinity (Kd) for all three JNK isoforms, in words (JNK1-3 [5]): relatively high binding affinity
Kd (JNK3 [6]): 910 ± 300 nM
IC50 (NF-κB/AP-1): 100 ± 50 nM
melting point: 210 to 211 °C
Compound: ON=C1c2ccccc2-c2nc3c(CN4CCOCC4)cccc3nc21 [Compound 4m, 6-(Morpholinomethyl)-11H-indeno[1,2-b]quinoxalin-11-one Oxime]
IC50 at 24 h [2]: > 50000 nM
IC50 at 24 h [3]: > 50000 nM
Effect on LPS-induced c-Jun (Ser63) phosphorylation (phospho-c-Jun (Ser63)): inhibited c-Jun phosphorylation

Compound: ON=C1c2ccccc2-c2nc3ccccc3nc21 [IQ-1, 11H-indeno[1,2-b]quinoxalin-11-one oxime]
IC50 (IL-6 [7]): 3400 ± 800 nM

Compound: Cc1ccc(-c2ncn(-c3ccc(Nc4nccc(-c5cccc(N6CCOCC6)c5)n4)cc3)n2)cn1 [SR-3306]
IC50 (JNK3 [8]): 67 nM
IC50 (JNK1 [9]): 159 nM

Compound: SP600125
IC50 (JNK1-3 [10]): 40 to 90 nM
